According to article PMC5986872, “Schaftoside Interacts With NlCDK1 Protein: A Mechanism of Rice Resistance to Brown Planthopper, Nilaparvata lugens” (Frontiers in Plant Science, 2018):

Biological target: T1, NlCDK1 (Nilaparvata lugens, UniProt A0A1W5R2Z8)
T1 construct: CDS cloned BamHI/HindIII in pET32a
Assay: intrinsic fluorescence quenching titration, double-log plot
Type: binding
Settings: PBS; pH 7.4; 0.24 × 10^-6 mol/L protein; excitation 281 nm, emission 335 nm

T1 sequence (A0A1W5R2Z8 1-302): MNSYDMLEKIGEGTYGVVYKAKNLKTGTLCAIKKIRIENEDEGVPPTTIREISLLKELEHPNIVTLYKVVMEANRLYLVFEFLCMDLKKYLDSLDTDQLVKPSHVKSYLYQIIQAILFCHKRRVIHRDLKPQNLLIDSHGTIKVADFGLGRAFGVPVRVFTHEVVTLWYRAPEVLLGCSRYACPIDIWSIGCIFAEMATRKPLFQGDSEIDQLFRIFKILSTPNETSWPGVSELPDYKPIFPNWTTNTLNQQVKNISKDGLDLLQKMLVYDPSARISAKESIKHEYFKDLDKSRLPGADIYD

KA (apparent association constant): 6.436 × 10^3
Compound: O=c1cc(-c2ccc(O)cc2)oc2c([C@@H]3OC[C@H](O)[C@H](O)[C@H]3O)c(O)c([C@@H]3O[C@H](CO)[C@@H](O)[C@H](O)[C@H]3O)c(O)c12 [schaftoside, 6-C-beta-D-Glucosyl-8-C-alpha-L-arabinosylapigenin]
